{"source": "patent US20220016183A1", "about": "“EXOSOME AND VARIOUS USES THEREOF” (PROSTEMICS CO., LTD., priority 2018, published 2022)", "tested_on": "Dermal papilla cells, DPC", "experiment": "Dermal papilla cell (DPC) proliferation, CCK-8", "type": "cell-based", "details": "10 μM, 24 hours", "method": "After dispensing a serum medium with 10,000 cells/well of papillary cells (Dermal papilla cells, DPC) in a 96-well microplate, the cells were incubated overnight at 37° C. in a CO2 incubator. […] After removing the treated material from each cell and dispensing the CCK-8 solution thereto, the cells were incubated in the CO2 incubator at 37° C. for 2 hours, and absorbance was measured at 450 nm."}
{"smiles": "Nc1cc(N2CCCCC2)nc(N)[n+]1[O-]", "note": "[M1, Minoxidil]", "values": [{"measurement": "DPC proliferation rate (%)", "value": 118.97, "unit": "%"}]}
